This note sets out measurements from patent US20190322643A1 (Georgia State University Research Foundation, Inc., priority 2016, published 2019).

“Also recorded” adds a separate entry of the source. Like-named read-outs stand apart in the source and are kept apart here.

Data set [1] relates to HDAC. The experiment in a line: Cell based homogenous HDAC assay, K562. As to conditions: read-out: IC50-HDAC K562; K562 cells, mean ± SD of triplicate.
Description: (§5) After 24 h, 9 μl inhibitors with different concentration were added to the HeLa cells and incubation was continued for 3 h under cell culture conditions. After this treatment period, 10 μl of a 2 mM stock solution of the substrate Boc-K(Ac)-AMC was added into the 96 well plates with Hela cells and inhibitors. […] A549 and K562 cell lines used the same method, respectively. IC50s were calculated using GraphPad Prizm statistical package with sigmoidal variable slope dose response curve fit.
(§6) Boc-K(Ac)-AMC was used as a cell-permeable HDAC substrate, as after deacetylation it is cleaved by trypsin to release the florescent 7-amino-4-methylcoumarin (AMC).
The target of data set [2] is T1, Mouse histone methyltransferase G9a (969-1263) (Mus musculus, UniProt Q9Z148).
T1 construct: The 6His-sumo mG9a (969-1263) protein was purified using the following procedure; 6His-sumo (cleaved yes); made in house; host or cells: Escherichia coli BL21 (DE3)
T1 sequence (Q9Z148 969-1263): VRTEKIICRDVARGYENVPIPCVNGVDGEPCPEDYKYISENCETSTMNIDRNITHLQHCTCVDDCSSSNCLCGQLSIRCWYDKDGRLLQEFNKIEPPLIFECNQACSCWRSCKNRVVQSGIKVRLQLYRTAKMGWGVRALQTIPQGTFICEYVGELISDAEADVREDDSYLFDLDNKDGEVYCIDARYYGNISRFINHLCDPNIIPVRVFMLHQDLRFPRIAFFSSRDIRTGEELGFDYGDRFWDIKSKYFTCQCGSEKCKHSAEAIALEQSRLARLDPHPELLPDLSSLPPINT
Description: MALDI-TOF methylation study of G9a inhibition. In kind it is biochemical. As to conditions: inhibitors at 5 μM concentration for 30 min. As to the method:
Mouse histone methyltransferase G9a (969-1263) cDNA was amplified from the cDNA of BALB/c mouse thymus, and the fragment was sub-cloned into a vector with a 6His-sumo tag. […] The 6His-sumo mG9a (969-1263) protein was purified using the following procedure: harvested cell pellet was re-suspended in 20 mM Tris (pH 8.0), 500 mM NaCl, 0.1% β-mercaptoethanol, and 1 mM PMSF. Cells were lysed by sonicating for 15 seconds with 6 second intervals for a total time of 15 minutes on an ice bath. […] The 6His-sumo tag was cleaved from the column by adding Ubiquitin-like-specific protease 1 (ULP-1) at 4° C. for 12 hours. Wash buffer was then run through the Ni^+ column again and the elution buffer collected. Subsequently, advanced protein purification was done by HiTrap Q HP sequential Superdex 200 10/300 GL. Elute of every step was analyzed by SDS PAGE, stained by Coomassie brilliant blue (CBB). […] The reaction was incubated at room temperature for 30 min, and stopped by TFA. 1 μL of the sample was mixed with CHCA matrix and m/z peaks were obtained at reflection positive mode. The results of mass spectrum were analyzed using the Bruker flex analysis software and data processing was carried out as described below. MALDI-TOF based experiments were performed according to the protocol developed by Chang et al. (Nat. Struct. Mol. Biol. 2009, 16, 312-317). MALDI spectra were collected using Bruker flex control software and analyzed by flex analysis. After labelling each cluster peaks of H3K9Me0, H3K9Me1 and H3K9Me2 for all of the tested concentrations, area under the cluster (AUC) were extracted by using the same flex analysis software. % abundance of each peak was calculated by following formula: A=% Abundance of (H3K9Me0)=area of H3K9Me0/(area of H3K9Me0+area of H3K9Me1+area of H3K9Me2) B=% Abundance of (H3K9Me1)=area of H3K9Me1/(area of H3K9Me0+area of H3K9Me1+area of H3K9Me2) C=% Abundance of (H3K9Me2)=area of H3K9Me2/(area of H3K9Me0+area of H3K9Me1+area of H3K9Me2). This was repeated for each spectra (3 multiples for each samples). […] Finally % inhibition was found by subtracting % MA(i) from 100. […] A biochemical assay using MALDI-TOF was used to visualize the effects of the synthesized compounds on G9a enzymatic activity. […] Struct. Mol. Biol. 2009, 16, 312-317).

A further data set concerns MDA-MB-231. The experiment in a line: Cytotoxicity / anti-proliferation assay (CCK-8), MDA-MB-231. The format is cell-based. As to conditions: Homo sapiens. As to the method:
(§1) A549, MDA-MB-231, HCT-8, MCF-7, and HEK293 cells were seeded at 8000-10000 cells (100 μl) in white 96-well plates and pre-incubate the plate for 24 h under standard cell culture conditions, respectively. Then the cells were exposed to the different inhibitors with various concentrations for 72 h. Finally, 10 μl of CCK-8 kit solution was added to each well and incubated for 3-4 hours under standard cell culture conditions, and the 96 well plates were measured the absorbance at 450 nm using Perkin-Elmer Wallac Victor ^3V 1420 multi label plate reader (Perkin-Elmer, Wellesley, USA). EC50s were calculated using GraphPad Prizm statistical package with sigmoidal variable slope dose response curve fit.
(§2) Cell anti-proliferation assays were performed to determine the toxicity of these inhibitors. Several cell lines (MDA-MB-231, MCF-7, A549 and HCT-8) were incubated and then treated with varying concentrations of the inhibitors for 72 h, respectively. […] These compounds were further evaluated against the control cell line HEK293 to test their toxicity with a non-cancerous cell line.

The test system of the next data set is HEK293. The experiment in a line: Toxicity assay (CCK-8) in control non-cancerous cell line. The format is cell-based. As to the method:
as §1, §2

For data set [3], the system named is HDAC. The experiment in a line: Cell based homogenous HDAC assay, A549. As to conditions: read-out: IC50-HDAC A549; A549 cells, mean ± SD of triplicate.
Description: as §5, §6
Data set [4] relates to HDAC. The experiment in a line: Cell based homogenous HDAC assay, Hela. As to conditions: read-out: IC50-HDAC Hela; Hela cells, mean ± SD of triplicate.
Description: as §5, §6
The target of another data set is T2, G9a (Homo sapiens, UniProt Q96KQ7).
T2 construct: endogenous in cells; host or cells: MDA-MB-231
T2 sequence (Q96KQ7 1-1210): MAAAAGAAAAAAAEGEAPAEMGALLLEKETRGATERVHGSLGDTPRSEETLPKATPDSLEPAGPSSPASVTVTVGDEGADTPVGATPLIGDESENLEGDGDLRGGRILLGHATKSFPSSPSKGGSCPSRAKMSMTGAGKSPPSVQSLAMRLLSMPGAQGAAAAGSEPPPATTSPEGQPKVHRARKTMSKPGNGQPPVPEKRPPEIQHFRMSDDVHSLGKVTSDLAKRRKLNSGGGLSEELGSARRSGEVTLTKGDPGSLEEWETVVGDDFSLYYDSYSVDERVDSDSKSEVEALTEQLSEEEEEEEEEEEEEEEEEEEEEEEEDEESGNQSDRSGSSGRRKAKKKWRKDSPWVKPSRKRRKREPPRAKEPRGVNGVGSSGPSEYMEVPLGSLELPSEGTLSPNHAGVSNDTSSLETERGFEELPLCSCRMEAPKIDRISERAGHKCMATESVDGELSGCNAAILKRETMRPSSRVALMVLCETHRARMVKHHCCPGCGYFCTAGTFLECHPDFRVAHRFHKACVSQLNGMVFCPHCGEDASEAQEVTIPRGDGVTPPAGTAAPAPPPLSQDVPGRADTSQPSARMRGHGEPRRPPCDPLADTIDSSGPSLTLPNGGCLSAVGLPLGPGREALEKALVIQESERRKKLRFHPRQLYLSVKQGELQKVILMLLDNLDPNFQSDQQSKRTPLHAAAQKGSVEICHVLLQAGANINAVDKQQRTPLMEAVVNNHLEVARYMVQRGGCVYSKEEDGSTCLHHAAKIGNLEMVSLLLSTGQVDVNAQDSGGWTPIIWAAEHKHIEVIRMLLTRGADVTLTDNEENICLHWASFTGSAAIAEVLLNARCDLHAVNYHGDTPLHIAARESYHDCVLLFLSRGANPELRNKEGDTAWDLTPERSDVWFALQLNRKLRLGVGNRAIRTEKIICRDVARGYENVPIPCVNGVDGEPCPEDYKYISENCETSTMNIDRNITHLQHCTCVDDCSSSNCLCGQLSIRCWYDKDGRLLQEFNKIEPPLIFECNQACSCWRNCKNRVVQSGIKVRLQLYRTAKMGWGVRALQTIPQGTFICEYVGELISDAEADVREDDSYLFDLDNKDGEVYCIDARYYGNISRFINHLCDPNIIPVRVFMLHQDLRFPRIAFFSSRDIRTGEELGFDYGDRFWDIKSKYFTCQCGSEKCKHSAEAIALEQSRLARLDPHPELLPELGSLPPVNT
The experiment in a line: H3K9Me2 cell immunofluorescence in-cell Western (ICW) assay. The format is cell-based. As to conditions: MDA-MB-231 cell line, 48 h. How it is done: After the incubation, the media was removed and 100 μl fixation and permeabilization solution (2% formaldehyde in PBS) for fixation was added for 30 min. And then use 200 μl 0.1% Triton X100 in PBS washing solution to wash (allow wash to shake on a plate shaker for 5 minutes). After five washes, cells were blocked for 1 h with 150 μl blocking buffer to each well (1% BSA in PBS) (allow blocking at RT with moderate shaking on a plate shaker). After 1 h, remove the blocking buffer from the blocking step and add primary antibody in blocking buffer to cover the bottom of each well. […] The plates were read on an Odyssey CLX (LiCor) scanner at both 800 nm (H3K9me2 signal) and 700 nm (cell tag 700 stain signal) channels. IC50s were calculated using GraphPad Prizm statistical package with sigmoidal variable slope dose response curve fit.

In the next data set the test system is A549. The experiment in a line: Cytotoxicity / anti-proliferation assay (CCK-8), A549. The format is cell-based. As to conditions: Homo sapiens, 72 h, CCK-8 kit. How it is done: (§3) Then the cells were exposed to the different inhibitors with various concentrations for 72 h. […] EC50s were calculated using GraphPad Prizm statistical package with sigmoidal variable slope dose response curve fit.
(§4) Cell anti-proliferation assays were performed to determine the toxicity of these inhibitors. […] These compounds were further evaluated against the control cell line HEK293 to test their toxicity with a non-cancerous cell line.

Data set [5] has as its system HDAC. Description: Homogeneous cellular HDAC assay, statements in text without one cell line. As to conditions: result in words.
Description: as §5, §6
A further data set concerns HCT-8. Description: Cytotoxicity / anti-proliferation assay (CCK-8), HCT-8. In kind it is cell-based. As to conditions: Homo sapiens, 72 h, CCK-8 kit. As to the method: as §3, §4
Where [6] appears, read: alone or as 1:1 mixture, 1-100 μM, read-out: EC50 value.

As a reminder, the IC50 is the concentration that inhibits the measured activity by half. As a reminder, the inhibition is the percentage by which the read-out fell short of the control. As a reminder, the EC50 is the concentration that produces a half-maximal response. As to `COc1cc2nc(N3CCCN(C)CC3)nc(NC3CCN(Cc4ccccc4)CC3)c2cc1OC.Cl.Cl.Cl` [BIX-01294, 2-(hexahydro-4-methyl-1H-1,4-diazepin-1-yl)-6,7-dimethoxy-N-[1-(phenylmethyl)-4-piperidinyl]-4-quinazolinamine trihydrochloride, reference compound], the IC50 in the data set with HDAC [1], in the data set on HDAC [3] and with HDAC [4] was > 100 µM throughout. In data set [2], this compound registered an inhibition at 5 µM of 77.7 ± 5.73%. The EC50 in the data set on MDA-MB-231 (setting [6]) amounted to 2.16 ± 0.88 µM. Besides, the “toxicity in normal cell line” value in the data set on HEK293 is “toxic”.
As to `COc1cc2nc(NCCNC(=O)CCCCCC(=O)NO)nc(NC3CCN(Cc4ccccc4)CC3)c2cc1OC` [Compound 5b, N1-(2-((4-((1-benzylpiperidin-4-yl)amino)-6,7-dimethoxyquinazolin-2-yl)amino)ethyl)-N7-hydroxyheptanediamide], the IC50 on G9a is 87.4 ± 5.44 µM. In [2], the inhibition at 5 µM is 38 ± 4.99%. The EC50 in the data set with A549 and in the data set on HCT-8 was > 100 µM in each case. Moreover, the HDAC inhibition activity result with HDAC [5] was “much lower than that of 14”.
On to `COc1ccc2c(NC3CCN(Cc4ccccc4)CC3)nc(NCCNC(=O)CCCCCCC(=O)NO)nc2c1` [Compound 13, N1-(2-((4-((1-benzylpiperidin-4-yl)amino)-7-methoxyquinazolin-2-yl)amino)ethyl)-N8-hydroxyoctanediamide], for which, on G9a, the midpoint of inhibition, the IC50, lay at 37.8 ± 2.8 µM. Besides, in [2], the inhibition at 5 µM is 62 ± 14.4%. In the data set with HDAC [5], the HDAC inhibition activity result is on record as “significant HDAC inhibition”. Besides, in the data set on HEK293, the “toxicity in normal cell line” value is “lower toxicity”. In addition, in the data set on HCT-8, the EC50 was > 100 µM.
On the same counts, the results for `COc1ccc2c(NC3CCN(Cc4ccccc4)CC3)nc(NCCNC(=O)CCCCCC(=O)NO)nc2c1` [Compound 14, N1-(2-((4-((1-benzylpiperidin-4-yl)amino)-7-methoxyquinazolin-2-yl)amino)ethyl)-N7-hydroxyheptanediamide] are 7.14 ± 1.62 µM, 69.5 ± 3.43%, “significant HDAC inhibition”, “lower toxicity; also recorded: less toxic compared to 13” and 73.1 ± 1.21 µM.
Regarding `COc1cc2c(NC3CCN(C(C)C)CC3)nc(N3CCCN(C)CC3)nc2cc1OCCCCCCC(=O)NO` [Compound 26, N-hydroxy-7-((4-((1-isopropylpiperidin-4-yl)amino)-6-methoxy-2-(4-methyl-1,4-diazepan-1-yl)quinazolin-7-yl)oxy)heptanamide], the IC50 in the data set with HDAC [1] was > 100 µM; against G9a, 27.4 ± 3.59 µM; with HDAC [3] it was > 100 µM; with HDAC [4], > 100 µM. This compound had an inhibition at 5 µM in data set [2] of 35.6 ± 0.88%. Also, the EC50 in the data set with A549 and with HCT-8 was > 100 µM in each case.
For the compound `O=C(CCCCCCC(=O)Nc1ccccc1)NO` [SAHA, N-hydroxy-N′-phenyl-octanediamide], the EC50 with MDA-MB-231 (72 h, CCK-8 kit, read-out: EC50 MDA-MB-231) is 2.87 ± 0.84 µM; with MDA-MB-231 (setting [6]), 2.87 ± 0.84 µM. Moreover, the “toxicity in normal cell line” value in the data set with HEK293 is “toxic”.
